Paper PMC10653770 (Journal of Enzyme Inhibition and Medicinal Chemistry, 2023)

Assays:
in vitro = conditions: human
[1] = target: AChE − induced Aβ1 − 42 aggregation (Homo sapiens, UniProt P22303); assay type: biochemical; conditions: co-incubation with Aβ1-42 and AChE for 24h; 0.1 μM and 1 μM compound
SH − SY5Y cells [2] = conditions: for toxicity towards SHSY5Y cells: within the tested concentration range
hAChE = hAChE (Homo sapiens, UniProt P22303); assay: Kinetic profiling of AChE inhibition; assay type: biochemical; conditions: Lineweaver–Burk plot
SH − SY5Y cells [3] = assay type: cell-based, human; conditions: 1 μM compound; Aβ1 − 42 20 μM, 48 h

Chain of AChE − induced Aβ1 − 42 aggregation (P22303 32-614): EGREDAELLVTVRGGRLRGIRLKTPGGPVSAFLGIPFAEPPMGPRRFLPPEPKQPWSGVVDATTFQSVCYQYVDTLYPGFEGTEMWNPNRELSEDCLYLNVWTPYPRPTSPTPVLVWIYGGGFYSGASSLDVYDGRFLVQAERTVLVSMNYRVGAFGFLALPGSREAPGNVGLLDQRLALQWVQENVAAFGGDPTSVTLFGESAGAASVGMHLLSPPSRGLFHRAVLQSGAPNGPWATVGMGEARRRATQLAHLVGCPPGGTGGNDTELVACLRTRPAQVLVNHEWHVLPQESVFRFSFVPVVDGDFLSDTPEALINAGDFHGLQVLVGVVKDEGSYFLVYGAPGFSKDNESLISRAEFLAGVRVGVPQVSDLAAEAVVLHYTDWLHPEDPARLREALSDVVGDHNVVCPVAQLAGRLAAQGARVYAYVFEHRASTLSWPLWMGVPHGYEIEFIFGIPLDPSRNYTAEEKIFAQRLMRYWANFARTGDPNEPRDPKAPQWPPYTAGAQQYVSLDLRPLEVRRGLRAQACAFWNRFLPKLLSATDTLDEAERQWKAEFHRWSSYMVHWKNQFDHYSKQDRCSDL
Chain of hAChE (P22303 32-614): as above

C=CCn1c2cc(OC(=O)CCCCN3CCN(Cc4ccc(F)cc4)CC3)ccc2c2ccnc(C)c21 [Compound 17d, 9-allyl-1-methyl-9H-pyrido[3,4-b]indol-7-yl 5–(4-(4-fluorobenzyl)piperazin-1-yl)pentanoate]
viability at 10 µM (in vitro): > 79%
AChE − induced Aβ1 − 42 aggregation [1]: significant reduction in Aβ1 − 42 aggregation
toxicity towards SHSY5Y cells (SH − SY5Y cells [2]): weak toxicity

C=CCn1c2cc(OC(=O)CCCCN3CCN(Cc4ccccc4)CC3)ccc2c2ccnc(C)c21 [Compound 13, 9-allyl-1-methyl-9H-pyrido[3,4-b]indol-7-yl 5–(4-benzylpiperazin-1-yl)pentanoate]
type of AChE inhibition (hAChE): mixed − type inhibition
viability at 10 µM (in vitro): > 79%
AChE − induced Aβ1 − 42 aggregation [1]: significant reduction in Aβ1 − 42 aggregation
cellular recovery against Aβ1 − 42−induced damage (SH − SY5Y cells [3]): exceptional cellular recovery
cytotoxicity in SHSY5Y cells (SH − SY5Y cells [2]; 0.1 to 1 μM, 48h incubation): negligible cytotoxicity
toxicity towards SHSY5Y cells (SH − SY5Y cells [2]): weak toxicity
